{
  "source": "patent EP0415103A1",
  "about": "“2,3-Dihydro-1-(pyridinylamino)-indoles, a process for their preparation and their use as medicaments” (HOECHST-ROUSSEL PHARMACEUTICALS INCORPORATED, priority 1989, dated 1991)",
  "key": {"[1]": {"system": "Scopolamine Induced Memory Deficit", "test": "Dark Avoidance Assay (reversal of scopolamine-induced memory deficit)", "assay_type": "in vivo", "conditions": "mice, retest after 24 hours", "experimental": "In this assay, mice are tested for their ability to remember an unpleasant stimulus for a period of 24 hours. A mouse is placed in a chamber that contains a dark compartment; a strong incandescent light drives it to the dark compartment, where an electric shock is administered through metal plates on the floor. The animal is removed from the testing apparatus and tested again, 24 hours later, for the ability to remember the electric shock. If scopolamine, an anticholinergic that is known to cause memory impairment, is administered before an animal's initial exposure to the test chambers, the animal re-enters the dark compartment shortly after being placed in the test chamber 24 hours later. The effect of scopolamine is blocked by an active test compound, resulting in a greater interval before re-entry into the dark compartment. The results for an active compound are expressed as the percent of a group of animals in which the effect of scopolamine is blocked, as manifested by an increased interval between being placed in the test chamber and re-entering the dark compartment. The activity of some of the compounds of the instant invention in the assay are given below in Table 2."}, "[2]": {"system": "phenyl-para-quinone induced writhing", "test": "phenyl-para-quinone writhing assay (analgesia)", "assay_type": "in vivo, mice", "conditions": "for % Inhibition of Writhing: 20 mg/kg s.c., mice"}, "[3]": {"system": "extensor tonus", "test": "supramaximal electroshock (SES) assay (anticonvulsant activity)", "assay_type": "in vivo, male mouse", "conditions": "30 minute pretreat, normalized relative to vehicle control", "experimental": "The compounds of the invention are also useful as anticonvulsants due to their anticonvulsant activity in mammals. Anticonvulsant activity is measured in the male mouse using the supramaximal electroshock (SES) assay described in Arch. Int. Pharmacodyn. 92:97-107, 1952. In this procedure, groups of male mice are used. Drugs are prepared using distilled water and, if insoluble, a surfactant is added. Control animals receive vehicle. Drugs are routinely administered interperitoneally (i.p.). The dosage volume is 10 ml/kg. A primary screen is given a 30 minute pretreat. The animals' eyes are placed across the output terminals of an A.C. shocker that delivers 206 volts rms for 300 msec. Electrode paste coats the animals' eyes at the point of contact with the terminals. […] Protection is expressed as normalized percent inhibition relative to vehicle control."}},
  "data": [
    {"smiles": "Nc1c2c(nc3ccccc13)CCCC2", "note": "[Tacrine]", "values": [
      {"measurement": "% of Animals With Scopolamine Induced Memory Deficit Reversal", "setting": "[1]; 0.63 mg/kg s.c", "value": 13, "unit": "%"}
    ]},
    {"smiles": "CC(=O)Oc1ccccc1C(=O)O", "note": "[Aspirin, reference compound]", "values": [
      {"measurement": "ED50", "setting": "[2]; Mus musculus, sc, read-out: ED₅₀ (subcutaneous dose at which 50% of the phenyl-para-quinone induced writhing is inhibited)", "value": 32.8, "unit": "mg/kg"}
    ]},
    {"smiles": "c1ccc2c(c1)CCN2Nc1ccncc1", "note": "[2,3-Dihydro-N-(4-pyridinyl)-1H-indol-1-amine]", "values": [
      {"measurement": "% of Animals With Scopolamine Induced Memory Deficit Reversal", "setting": "[1]; 0.3 mg/kg s.c.", "value": 53, "unit": "%"},
      {"measurement": "% Inhibition of Writhing", "setting": "[2]", "value": 74, "unit": "% at 20 mg/kg"},
      {"measurement": "% Inhibition", "setting": "[3]; 15 mg/kg i.p.", "value": -40, "unit": "% at 15 mg/kg i.p."}
    ]},
    {"smiles": "CCCN(c1ccncc1)N1CCc2ccccc21.O=C(O)C(=O)O", "note": "[2,3-Dihydro-N-propyl-N-(4-pyridinyl)-1H-indol-1-amine oxalate]", "values": [
      {"measurement": "% Inhibition of Writhing", "setting": "[2]", "value": 100, "unit": "% at 20 mg/kg"},
      {"measurement": "% Inhibition", "setting": "[3]; 10 mg/kg i.p.", "value": -40, "unit": "% at 10 mg/kg i.p."}
    ]},
    {"smiles": "CC[C@@H]1C(=O)OC[C@@H]1Cc1cncn1C", "note": "[Pilocarpine]", "values": [
      {"measurement": "% of Animals With Scopolamine Induced Memory Deficit Reversal", "setting": "[1]; 1.25 mg/kg s.c", "value": 19, "unit": "%"}
    ]},
    {"smiles": "CCC1(c2ccccc2)C(=O)NC(=O)NC1=O", "note": "[Phenobarbital, reference compound]", "values": [
      {"measurement": "% Inhibition", "setting": "[3]; 8.4 mg/kg i.p.", "value": -50, "unit": "% at 8.4 mg/kg"}
    ]}
  ]
}
